Experimental data as given in PMC11915509, “Small molecule inhibitors of hnRNPA2B1–RNA interactions reveal a predictable sorting of RNA subsets into extracellular vesicles” (Nucleic Acids Research, 2025).

Columns and labels:
GST-hnRNPA2B1 = target: T1, GST-hnRNPA2B1 (Homo sapiens, UniProt P22626); experiment: AlphaScreen binding kinetics with EXOmotif probe; settings: 30 nM GST-hnRNPA2B1, time frame of 2 h
T1 construct: purified a human full-length, GST-tagged protein expressed in Escherichia coli cells; made in house; host or cells: E. coli BL21 (DE3)
Protocol: AlphaScreen assay was used to study the interaction between hnRNA2B1 and different biotinylated single-stranded RNA probes: EXO RNA (5′-BTeg- […]), RNA 114 (5′- BTeg-[…]), and RNA 276 (5′-B-Teg- […]). The assays were performed in OptiPlate-384-well plates (PerkinElmer, 6007299) in 20 μl final volume. The ligands were diluted in AlphaBuffer [25 mM HEPES, pH 7.4, 100 mM NaCl, 0.01% bovine serum albumin (BSA)] and tested using AlphaScreen GST Detection Kit (PerkinElmer, 6760603C). For the assay optimization, different concentrations of the RNA probes (0–100 nM) were incubated with different concentrations of GST-hnRNPA2B1 (0–60 nM) in the presence of streptavidin Donor beads and anti-GST-Acceptor beads (PerkinElmer) (20 μg/ml final concentration). […]
Figure 2. […] Dissociation constants (Kd) were determined from nonlinear regression one-site binding model in GraphPad Prism®, version 9.0. […] Association (Kon) and dissociation (Koff) rate constants and equilibrium dissociation constants (koff/kon) were determined using nonlinear regression association kinetic model of multiple ligand concentration in GraphPad Prism®, version 9.0. […] Densitometric quantification of protein fractions were normalized to the input. […] (G) Distribution of positive (EXOmotif) and negative (ARE) protein–RNA probe interactions calculated in the primary drug screening. […]

hnRNPA2B1 isoform = system: hnRNPA2B1 isoform; design: method as in PMID 29379020; settings: hnRNPA2B1 isoform ref 45; read-out: observed Kd; cited from earlier work

T1 sequence (P22626 whole entry): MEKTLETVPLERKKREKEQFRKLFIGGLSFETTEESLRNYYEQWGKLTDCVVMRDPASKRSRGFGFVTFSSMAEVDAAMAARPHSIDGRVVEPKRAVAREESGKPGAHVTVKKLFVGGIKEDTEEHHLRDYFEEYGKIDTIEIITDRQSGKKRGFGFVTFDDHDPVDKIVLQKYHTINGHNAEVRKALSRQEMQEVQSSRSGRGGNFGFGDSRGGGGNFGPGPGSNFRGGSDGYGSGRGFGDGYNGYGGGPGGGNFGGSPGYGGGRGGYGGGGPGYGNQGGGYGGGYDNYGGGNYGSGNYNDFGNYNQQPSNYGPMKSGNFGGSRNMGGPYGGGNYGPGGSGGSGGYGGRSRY

Substance | association rate constant kon (GST-hnRNPA2B1) | Kd (hnRNPA2B1 isoform)
EXOmotif: single-stranded RNA oligo 5′-GGGGAGGUUAGGGAGGAGGGGGGUAGGCGCC (RNA, backbone not given here) | 523 664 M^−1min^−1 | –
RNA 114: RNA oligo 5′-AAGGACUAGC | – | 114 nM
